# Source: US8058295B2, “Cystic fibrosis transmembrane conductance regulator protein inhibitors and uses thereof” (The Regents of the University of California, priority 2002, dated 2011)
# Test system: STa toxin-induced fluid secretion
# Design: species or system rats
# Details: rat, in vivo
smiles,measurement,value
"O=C(O)c1ccc(/C=C2\SC(=S)N(c3cccc(C(F)(F)F)c3)C2=O)cc1 [CFTRinh-172, 3-[(3-trifluoromethyl)phenyl]-5-[(4-carboxyphenyl)methylene]-2-thioxo-4-thiazolidinone]",inhibition of intestinal fluid secretion,~75%
